Read-outs that look alike come from different tables or passages of the source.
Tests used:
[1] = system: PBMCs derived from lung cancer patients; parameters: method as in PMID 28408401; conditions: cited from earlier work
[2] = system: HLA-DR, CD69, ICOS on CD4+ and CD8+ T-cells; assay: T-cell activation markers on CD4+ and CD8+ T-cells in PBMCs; assay type: in vivo, Japanese patients; conditions: Cohorts 1–3
Method: Staining of CD3+ cells was performed using antibodies (all from BioLegend) against CD4 (Clone RPA-T4, Cat. 300512), CD8 (Clone SK-1, Cat. 344718), CD69 (Clone FN50, Cat. 310910), inducible T-cell costimulator (ICOS; Clone […], Cat. 313514), and human leukocyte antigen-DR (HLA-DR; Clone L243, Cat. 307630).

[3] = system: Ac-K levels in CD19+ cells; assay: Protein lysine acetylation (Ac-K) levels in PBMCs; assay type: in vivo, Japanese patients; conditions: 24 h after first administration
Method: Ac-K levels in CD19+ cells, CD56+ CD16- cells, CD14+ monocytes, CD16+ cells, CD3+ T-cells, and CD45+ cells were measured using the previously reported methods, with a modification where antiacetylated lysine monoclonal antibody (BioLegend, San Diego, CA, USA; Clone 15G10, Cat. 623406) was used.

[4] = Electrocardiogram, change in QTc interval; assay type: in vivo, Japanese patients; conditions: patients tested
Method: (§1) The primary endpoint was safety. The severity of adverse events (AEs) was evaluated using National Cancer Institute Common Terminology Criteria for Adverse Events version 4.03 [21].

[5] = once weekly; cited from earlier work
[6] = Plasma ENT concentration and PK parameters (LC/MS/MS); assay type: in vivo, Japanese patients
Method: The PK parameters assessed after single and/or combination therapy included time at which maximum plasma concentration (Cmax) was observed (tmax), and the area under the plasma concentration-time curve from time 0–168 h (AUC0–168).

[7] = Phase 1 3 + 3 dose-escalation study: safety, DLTs and drug-related AEs (CTCAE v4.03); assay type: in vivo
Method: This study was based on a 3 + 3 dose-escalation design (Additional file 1). […] The duration of cycle 0 was 7 days and that of each cycle after cycle 1 was 28 days in principle. Treatment continued until progressive disease (PD) or discontinuation for other reasons (Additional file 1).
as §1
However, patients with nausea, vomiting, diarrhea, and hypophosphatemia were allowed to continue treatment without interruption by receiving the appropriate care.
AEs were summarized by System Organ Class and Preferred Term according to the Medical Dictionary for Regulatory Activities, version 20.1. The Kaplan-Meier method was used to estimate the median PFS (mPFS). PFS is defined as the duration of time from day 1 to the date of death or of PD, whichever came first. Patients who received subsequent therapy before confirmation of PD or in whom neither PD nor death was confirmed were censored at the last time point of non-PD confirmation. Clinical benefit rate (CBR) was defined as the percentage of patients achieving complete response (CR) or partial response (PR), or who maintained stable disease (SD) for more than 6 months.

[8] = system: HR+/HER2− advanced or metastatic BC; parameters: method as in PMID 23650416; conditions: ENCORE 301, N = 130; cited from earlier work
[9] = system: HR+/HER2− advanced or metastatic BC; conditions: BOLERO-2, cited from earlier work
[10] = Cohort 1 N = 3, ENT 3 mg mono → EXE combo
[11] = Cohort 2 N = 3, ENT 5 mg mono → EXE combo
[12] = Cohort 3 N = 3, ENT 10 mg mono → EXE combo
[13] = Cohort 4 N = 3, ENT 5 mg + EXE combo
[14] = Total N = 12, as of data cut-off date

In the case of `Nc1ccccc1NC(=O)c1ccc(CNC(=O)OCc2cccnc2)cc1` [ENT, Entinostat], the “T-cell activation markers such as CD69” value [1] is given as “increases”, the “Expression of HLA-DR in CD4+ and CD8+ T-cells” value [2] is given as “increased over time” and the “Expression of CD69” value ([2]; some patients, greater with SD ≥ 6 months) is given as “Increased expression”. The “Increase of Ac-K levels in CD19+ cells vs prior to administration” value (“Increase of Ac-K levels in CD19+ cells” below) ([3]; Cohort 1 (ENT 3 mg)) was “about 1.5 fold”, the “Increase of Ac-K levels in CD19+ cells” value ([3]; Cohort 2 (ENT 5 mg)) was roughly 1.9 fold and the “Increase of Ac-K levels in CD19+ cells” value ([3]; Cohort 3 (ENT 10 mg)) was roughly 2.7 fold. For the same compound, the Effect on electrocardiograms [4] was “no effect”, the Maximum tolerated dose [5] was 4 mg/m^2 and the “AUC0–168 dose dependency” value ([6]; ENT alone, 3, 5, 10 mg) was “increased linearly with dose”. For the same compound, the Steady state reached ([6]; all cohorts) was “cycle 1, day 15”, the Tmax ([6]; human, plasma, oral administration, all cohorts) was 28.8 to 85.2 min and the Cmax dose dependency ([6]; intersubject variability high at 10 mg) was “increased in accordance with dose escalation between 3 mg and 5 mg”. For the same compound, the “Anemia, G2 (n patients, drug-related AE)” value [7, 10] was 1, the “Back pain, G1 (n patients, drug-related AE)” value (“Back pain, G1” below) [7, 10] was 1 and the “Diarrhea, G2 (n patients, drug-related AE)” value [7, 10] was 1. The “Hypoalbuminemia, G1 (n patients, drug-related AE)” value (“Hypoalbuminemia, G1” for short) [7, 10] was 1, the “Hypoalbuminemia, G2 (n patients, drug-related AE)” value (“Hypoalbuminemia, G2” below) [7, 10] was 1 and the “Neutrophil count decreased, G2 (n patients, drug-related AE)” value (“Neutrophil count decreased, G2” for short) [7, 10] was 2. The “Neutrophil count decreased, G3 (n patients, drug-related AE)” value (“Neutrophil count decreased, G3” for short) [7, 10] was 1, the “Platelet count decreased, G1 (n patients, drug-related AE)” value (“Platelet count decreased, G1” below) [7, 10] was 2 and the “Pneumonitis, G1 (n patients, drug-related AE)” value (“Pneumonitis, G1” for short) [7, 10] was 1. The “Weight decreased, G2 (n patients, drug-related AE)” value [7, 10] was 1, the “White blood cell count decreased, G1 (n patients, drug-related AE)” value [7, 10] was 1 and the “White blood cell count decreased, G2 (n patients, drug-related AE)” value (“White blood cell count decreased, G2” below) [7, 10] was 1. For the same compound, the “Anemia, G1 (n patients, drug-related AE)” value [7, 11] was 1, the “Decreased appetite, G1 (n patients, drug-related AE)” value (from here on “Decreased appetite, G1”) [7, 11] was 1 and the “Diarrhea, G1 (n patients, drug-related AE)” value [7, 11] was 1. The “Fatigue, G1 (n patients, drug-related AE)” value (shortened to “Fatigue, G1”) [7, 11] was 1, the “Gastritis, G1 (n patients, drug-related AE)” value (from here on “Gastritis, G1”) [7, 11] was 1 and the “Headache, G1 (n patients, drug-related AE)” value (from here on “Headache, G1”) [7, 11] was 1. The “Hypoalbuminemia, G2” value [7, 11] was 1, the “Hypophosphatemia, G3 (n patients, drug-related AE)” value (“Hypophosphatemia, G3” for short) [7, 11] was 2 and the “Nausea, G1 (n patients, drug-related AE)” value [7, 11] was 2. For the same compound, the “Neutrophil count decreased, G2” value [7, 11] was 1, the “Neutrophil count decreased, G3” value [7, 11] was 1 and the “Platelet count decreased, G1” value [7, 11] was 1. The “Platelet count decreased, G3 (n patients, drug-related AE)” value (from here on “Platelet count decreased, G3”) [7, 11] was 1, the “White blood cell count decreased, G2” value [7, 11] was 1 and the “Anemia, G2 (n patients, drug-related AE)” value [7, 12] was 1. For the same compound, the “Back pain, G1” value [7, 12] was 1, the “Decreased appetite, G1” value [7, 12] was 1 and the “Fatigue, G1” value [7, 12] was 1. For the same compound, the “Headache, G1” value [7, 12] was 1, the “Hypoalbuminemia, G2” value [7, 12] was 2 and the “Hypophosphatemia, G2 (n patients, drug-related AE)” value [7, 12] was 1. For the same compound, the “Hypophosphatemia, G3” value [7, 12] was 1, the “Nausea, G1 (n patients, drug-related AE)” value [7, 12] was 2 and the “Neutrophil count decreased, G2” value [7, 12] was 1. For the same compound, the “Platelet count decreased, G1” value [7, 12] was 1, the “White blood cell count decreased, G2” value [7, 12] was 1 and the “Anemia, G3 (n patients, drug-related AE)” value [7, 13] was 1. The “Fatigue, G1” value [7, 13] was 1, the “Gastritis, G1” value [7, 13] was 1 and the “Hypoalbuminemia, G1” value [7, 13] was 1. For the same compound, the “Hypoalbuminemia, G2” value [7, 13] was 1, the “Hypophosphatemia, G3” value [7, 13] was 1 and the “Nausea, G1 (n patients, drug-related AE)” value [7, 13] was 2. For the same compound, the “Neutrophil count decreased, G2” value [7, 13] was 1, the “Neutrophil count decreased, G3” value [7, 13] was 1 and the “Platelet count decreased, G2 (n patients, drug-related AE)” value [7, 13] was 1. The “Platelet count decreased, G3” value [7, 13] was 1, the “Pneumonitis, G1” value [7, 13] was 1 and the “Weight decreased, G1 (n patients, drug-related AE)” value [7, 13] was 1. For the same compound, the “White blood cell count decreased, G2” value [7, 13] was 1, the “Drug-related hypophosphatemia, grade 1 or 2” value ([7]; DLT observation period) was “one patient in Cohorts 2, 3, and 4” and the “Drug-related nausea, grade 1” value ([7]; DLT observation period) was “one patient in Cohort 3 and two patients in Cohort 4”. The “Drug-related platelet count decreased, grade 1 or 2” value ([7]; DLT observation period) was “two patients in Cohort 4”, the “DLTs or grade 3–5 AEs” value ([7]; DLT observation period, ENT 3 mg or 5 mg once weekly or 10 mg single dose mono, ENT 5 mg weekly + EXE 25 mg/d) was “no DLTs or grade 3–5 AEs occurred” and the “Anemia, G1 (n patients, drug-related AE)” value [7, 14] was 1. The “Anemia, G2 (n patients, drug-related AE)” value [7, 14] was 2, the “Anemia, G3 (n patients, drug-related AE)” value [7, 14] was 1 and the “Back pain, G1” value [7, 14] was 2. The “Decreased appetite, G1” value [7, 14] was 2, the “Diarrhea, G1 (n patients, drug-related AE)” value [7, 14] was 1 and the “Diarrhea, G2 (n patients, drug-related AE)” value [7, 14] was 1. For the same compound, the “Fatigue, G1” value [7, 14] was 3, the “Gastritis, G1” value [7, 14] was 2 and the “Headache, G1” value [7, 14] was 2. For the same compound, the “Hypoalbuminemia, G1” value [7, 14] was 2, the “Hypoalbuminemia, G2” value [7, 14] was 5 and the “Hypophosphatemia, G2 (n patients, drug-related AE)” value [7, 14] was 1. The “Hypophosphatemia, G3” value [7, 14] was 4, the “Nausea, G1 (n patients, drug-related AE)” value [7, 14] was 6 and the “Neutrophil count decreased, G2” value [7, 14] was 5. The “Neutrophil count decreased, G3” value [7, 14] was 3, the “Platelet count decreased, G1” value [7, 14] was 4 and the “Platelet count decreased, G2 (n patients, drug-related AE)” value [7, 14] was 1. The “Platelet count decreased, G3” value [7, 14] was 2, the “Pneumonitis, G1” value [7, 14] was 2 and the “Weight decreased, G1 (n patients, drug-related AE)” value [7, 14] was 1. For the same compound, the “Weight decreased, G2 (n patients, drug-related AE)” value [7, 14] was 1, the “White blood cell count decreased, G1 (n patients, drug-related AE)” value [7, 14] was 1 and the “White blood cell count decreased, G2” value [7, 14] was 4. The “Study treatment interrupted because of grade 3 platelet count decreased” value ([7]; by data cut-off date) was “two patients”, the “Study treatment interrupted owing to grade 3 neutrophil count decreased” value ([7]; by data cut-off date) was “Three patients” and the ENT dose reduction ([7]; during DLT observation period, all cohorts) was “not observed”. For the same compound, the “ENT dose reduction from 5 mg to 3 mg owing to platelet count decreased and hypophosphatemia” value ([7]; in combination with EXE after DLT observation period) was “one patient in Cohort 2 and two patients in Cohort 4” and the “Serious AEs (SAEs)” value ([7]; start of study to cut-off date) was “one case each of abdominal pain (grade 2), pulmonary embolism (grade 3), maculopapular rash (grade 3), and femoral neck fracture (grade 3)”.

For `C=C1C[C@@H]2[C@H](CC[C@]3(C)C(=O)CC[C@@H]23)[C@@]2(C)C=CC(=O)C=C12` [EXE, exemestane], the “Median OS” value [8] is listed as 19.84 months, the “Median PFS” value [8] is listed as 2.3 months and the “Influence on the PK of ENT” value ([6]; ENT monotherapy vs ENT + EXE 25 mg/d) is listed as “no influence”. For the same compound, the mPFS ([9]; 35 Japanese patients) was 4.21 months and the mPFS ([9]; second-line or later hormonal therapy) was 4.1 months.
